Laboratory results from ChEMBL document CHEMBL1201862, “PubChem BioAssay data set” (2004).
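A five-concentration, 48-hour dose response in 96-well plates underlies each endpoint, interpolated linearly between surrounding concentrations. Abbreviation: GI50, concentration required for 50% inhibition of growth.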 Active and inactive are the calls of the source. Cut-off read from the data, not from the text of the source: active = GI50 up to about 1.1 µM and inactive = higher.

Key:
Assay in all cases: NCI anticancer screen, dose series, 48 h
[1] = test system: 786-0
[2] = test system: A498
[3] = test system: A549
[4] = test system: ACHN
[5] = test system: CAKI-1
[6] = test system: COLO 205
[7] = test system: DLD-1
[8] = test system: DMS-114
[9] = test system: DMS-273
[10] = test system: EKVX
[11] = test system: HCC 2998
[12] = test system: HCT-116
[13] = test system: HCT-15
[14] = test system: HL-60
[15] = test system: HOP-18
[16] = test system: HOP-62
[17] = test system: HOP-92
[18] = test system: HT-29
[19] = test system: IGROV-1
[20] = test system: K562
[21] = test system: KM-20L2
[22] = test system: KM12
[23] = test system: LOX IMVI
[24] = test system: LXFL 529
[25] = test system: M14
[26] = test system: M19-MEL
[27] = test system: MOLT-4
[28] = test system: Malme-3M
[29] = test system: NCI-H226
[30] = test system: NCI-H23
[31] = test system: NCI-H460
[32] = test system: NCI-H522
[33] = test system: OVCAR-3
[34] = test system: OVCAR-4
[35] = test system: OVCAR-5
[36] = test system: OVCAR-8
[37] = test system: RPMI-8226
[38] = test system: RXF 631
[39] = test system: SF-268
[40] = test system: SF-295
[41] = test system: SF-539
[42] = test system: SK-MEL-28
[43] = test system: SK-MEL-2
[44] = test system: SK-MEL-5
[45] = test system: SK-OV-3
[46] = test system: SN12C
[47] = test system: SNB-19
[48] = test system: SNB-75
[49] = test system: SNB-78
[50] = test system: SW-620
[51] = test system: TK-10
[52] = test system: U-251
[53] = test system: UACC-257
[54] = test system: UACC-62
[55] = test system: UO-31
[56] = test system: CCRF-CEM
[57] = test system: RXF 393
[58] = test system: SR
[59] = test system: XF498

With `Cc1cccc(C(C)(C)C)c1NC(=O)C(=O)Cc1nc2ccccc2s1` the GI50 [1] was > 100 µM (inactive), the GI50 [2] was > 100 µM (inactive) and the GI50 [3] was > 100 µM (inactive). The GI50 [4] was > 100 µM (inactive), the GI50 [5] was > 100 µM (inactive) and the GI50 [6] was > 100 µM (inactive). The GI50 [7] was > 100 µM (inactive), the GI50 [8] was > 100 µM (inactive) and the GI50 [9] was > 100 µM (inactive). The GI50 [10] was 27.4 µM (inactive), the GI50 [11] was > 100 µM (inactive) and the GI50 [12] was > 100 µM (inactive). For the same compound, the GI50 [13] was > 100 µM, the GI50 [14] was > 100 µM (inactive) and the GI50 [15] was > 100 µM (inactive). The GI50 [16] was > 100 µM (inactive), the GI50 [17] was > 100 µM (inactive) and the GI50 [18] was > 100 µM (inactive). For the same compound, the GI50 [19] was > 100 µM (inactive), the GI50 [20] was > 100 µM (inactive) and the GI50 [21] was > 100 µM (inactive). The GI50 [22] was > 100 µM (inactive), the GI50 [23] was > 100 µM (inactive) and the GI50 [24] was > 100 µM (inactive). The GI50 [25] was > 100 µM (inactive), the GI50 [26] was > 100 µM (inactive) and the GI50 [27] was > 100 µM (inactive). For the same compound, the GI50 [28] was > 100 µM (inactive), the GI50 [29] was > 100 µM (inactive) and the GI50 [30] was > 100 µM (inactive). For the same compound, the GI50 [31] was > 100 µM (inactive), the GI50 [32] was > 100 µM (inactive) and the GI50 [33] was > 100 µM (inactive). The GI50 [34] was > 100 µM (inactive), the GI50 [35] was > 100 µM (inactive) and the GI50 [36] was > 100 µM (inactive). For the same compound, the GI50 [37] was > 100 µM (inactive), the GI50 [38] was > 100 µM (inactive) and the GI50 [39] was > 100 µM (inactive). The GI50 [40] was > 100 µM (inactive), the GI50 [41] was > 100 µM (inactive) and the GI50 [42] was > 100 µM (inactive). For the same compound, the GI50 [43] was > 100 µM (inactive), the GI50 [44] was > 100 µM (inactive) and the GI50 [45] was > 100 µM (inactive). For the same compound, the GI50 [46] was > 100 µM (inactive), the GI50 [47] was > 100 µM (inactive) and the GI50 [48] was > 100 µM (inactive). For the same compound, the GI50 [49] was > 100 µM (inactive), the GI50 [50] was > 100 µM (inactive) and the GI50 [51] was > 100 µM (inactive). The GI50 [52] was > 100 µM (inactive), the GI50 [53] was > 100 µM (inactive) and the GI50 [54] was > 100 µM (inactive). For the same compound, the GI50 [55] was > 100 µM (inactive).
`N/C(=N\N=C=C1C(=O)Nc2ccc(F)cc21)NO` was tested, and the GI50 [1] was > 100 µM (inactive), the GI50 [2] was > 100 µM (inactive) and the GI50 [3] was > 100 µM (inactive). The GI50 [4] was 59.8 µM (inactive), the GI50 [5] was 28 µM (inactive) and the GI50 [56] was 98.2 µM (inactive). For the same compound, the GI50 [6] was > 100 µM (inactive), the GI50 [7] was > 100 µM (inactive) and the GI50 [8] was > 100 µM (inactive). The GI50 [9] was > 100 µM (inactive), the GI50 [10] was 95.5 µM (inactive) and the GI50 [11] was > 100 µM (inactive). The GI50 [12] was > 100 µM (inactive), the GI50 [13] was > 100 µM and the GI50 [14] was 47.5 µM (inactive). The GI50 [16] was > 100 µM (inactive), the GI50 [17] was 65.3 µM (inactive) and the GI50 [18] was > 100 µM (inactive). The GI50 [19] was > 100 µM (inactive), the GI50 [20] was 95.9 µM (inactive) and the GI50 [22] was 41.4 µM (inactive). The GI50 [23] was > 100 µM (inactive), the GI50 [24] was > 100 µM (inactive) and the GI50 [25] was > 100 µM (inactive). The GI50 [26] was > 100 µM (inactive), the GI50 [27] was > 100 µM (inactive) and the GI50 [28] was > 100 µM (inactive). The GI50 [30] was > 100 µM (inactive), the GI50 [31] was 74.5 µM (inactive) and the GI50 [32] was 86.1 µM (inactive). The GI50 [33] was > 100 µM (inactive), the GI50 [34] was > 100 µM (inactive) and the GI50 [36] was > 100 µM (inactive). The GI50 [57] was > 100 µM (inactive), the GI50 [38] was > 100 µM (inactive) and the GI50 [39] was > 100 µM (inactive). For the same compound, the GI50 [40] was > 100 µM (inactive), the GI50 [41] was > 100 µM (inactive) and the GI50 [42] was > 100 µM (inactive). The GI50 [43] was > 100 µM (inactive), the GI50 [44] was > 100 µM (inactive) and the GI50 [45] was 59.2 µM (inactive). For the same compound, the GI50 [46] was > 100 µM (inactive), the GI50 [48] was 21.3 µM (inactive) and the GI50 [49] was > 100 µM (inactive). The GI50 [58] was > 100 µM (inactive), the GI50 [50] was > 100 µM (inactive) and the GI50 [51] was > 100 µM (inactive). For the same compound, the GI50 [52] was > 100 µM (inactive), the GI50 [53] was > 100 µM (inactive) and the GI50 [54] was 39.3 µM (inactive). The GI50 [59] was > 100 µM (inactive).
In the case of `NNC(=O)/C(=C/c1ccc(Cl)c(Cl)c1)NC(=O)c1ccccc1`, the GI50 [1] is reported as > 100 µM (inactive), the GI50 [3] is reported as > 100 µM (inactive) and the GI50 [4] is reported as > 100 µM (inactive). For the same compound, the GI50 [56] was 92.5 µM (inactive), the GI50 [6] was > 100 µM (inactive) and the GI50 [7] was > 100 µM (inactive). The GI50 [8] was 61.8 µM (inactive), the GI50 [10] was > 100 µM (inactive) and the GI50 [11] was > 100 µM (inactive). The GI50 [12] was > 100 µM (inactive), the GI50 [14] was > 100 µM (inactive) and the GI50 [16] was > 100 µM (inactive). For the same compound, the GI50 [17] was 40.5 µM (inactive), the GI50 [18] was > 100 µM (inactive) and the GI50 [19] was > 100 µM (inactive). The GI50 [21] was > 100 µM (inactive), the GI50 [22] was > 100 µM (inactive) and the GI50 [23] was > 100 µM (inactive). The GI50 [24] was > 100 µM (inactive), the GI50 [25] was > 100 µM (inactive) and the GI50 [26] was > 100 µM (inactive). For the same compound, the GI50 [27] was 80.5 µM (inactive), the GI50 [28] was > 100 µM (inactive) and the GI50 [29] was > 100 µM (inactive). The GI50 [30] was > 100 µM (inactive), the GI50 [31] was > 100 µM (inactive) and the GI50 [33] was > 100 µM (inactive). For the same compound, the GI50 [34] was 76 µM (inactive), the GI50 [35] was > 100 µM (inactive) and the GI50 [36] was > 100 µM (inactive). The GI50 [37] was 38.5 µM (inactive), the GI50 [57] was > 100 µM (inactive) and the GI50 [38] was > 100 µM (inactive). The GI50 [39] was > 100 µM (inactive), the GI50 [40] was > 100 µM (inactive) and the GI50 [42] was > 100 µM (inactive). For the same compound, the GI50 [43] was > 100 µM (inactive), the GI50 [44] was > 100 µM (inactive) and the GI50 [46] was > 100 µM (inactive). The GI50 [47] was > 100 µM (inactive), the GI50 [48] was > 100 µM (inactive) and the GI50 [49] was > 100 µM (inactive). The GI50 [50] was > 100 µM (inactive), the GI50 [51] was > 100 µM (inactive) and the GI50 [52] was > 100 µM (inactive). For the same compound, the GI50 [53] was > 100 µM (inactive), the GI50 [54] was > 100 µM (inactive) and the GI50 [55] was > 100 µM (inactive). For the same compound, the GI50 [59] was > 100 µM (inactive).
